Assay [1] deals with PRC2-mediated histone H3 methylation. The assay is described as follows: Tri-Methyl Histone H3 (Lys 27) Sandwich ELISA in Pfeiffer cells: inhibition of PRC2-mediated histone H3 methylation. Type of assay: cell-based, human. The conditions noted are these: Homo sapiens; Inhibition of EZH2-mediated histone H3 trimethylation; Pfeiffer cells (EZH2 A677G), 96 hours incubation. In outline:
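Pfeiffer DLBCL cells (EZH2 A677G mutant) treated with 3-fold serial dilutions, 1µM to 0.15 nM final, for 96 hours at 37°C. Acid (0.4M HCl) histone extracts, neutralized, assayed by H3K27me3 sandwich ELISA with HRP/TMB read at 450 nm.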

The test system of the next assay is Karpas 422 cells. Description: Karpas 422 cell viability, CTG (Cell Titre Glo) assay. Type of assay: cell-based, human. The conditions noted are these: Homo sapiens; Inhibition of proliferation of Karpas 422 cells (EZH2 Y641N); viability measured Day 4, Day 7 or Day 11, time point of the tabulated values not stated. In outline:
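CellTiter-Glo viability IC50s taken at Day 4, Day 7 and Day 11 of continuous compound exposure (3-fold series, 10µM top, 1.5nM lowest) in RPMI/20% FBS at 37 °C. Y641N-mutant EZH2 lymphoma line seeded at 1000 cells per well; medium and compound replaced on Day 7 for Day 11 read.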

For assay [2], the target named is purified human, His-tagged PRC2 complex (Homo sapiens, UniProt O75530+Q15910). Description: Hot Spot HMT assay: inhibition of PRC2 enzymatic activity (transfer of tritiated methyl from SAM to core histone, filter binding). It counts as biochemical. The conditions noted are these: Inhibition of PRC2-mediated enzymatic activity; 10 nM PRC2 complex, 0.05 mg/ml core histone H3, 1 uM 3H-SAM, 1 hr at 30°C. In outline: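 Serial compound dilutions starting at 1.0 µM were pre-incubated 20 min at 30°C with 10 nM complex (His-EZH2, Flag-EED, His-SUZ12, His-AEBP2, His-RbAp48) and 0.05 mg/ml core H3. Reaction ran 1 hr at 30°C after adding 1 uM [3H]-SAM; scintillation counting followed filtration.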

pIC50: −log10 of the molar value.

Chain of purified human, His-tagged PRC2 complex (Q15910 whole entry): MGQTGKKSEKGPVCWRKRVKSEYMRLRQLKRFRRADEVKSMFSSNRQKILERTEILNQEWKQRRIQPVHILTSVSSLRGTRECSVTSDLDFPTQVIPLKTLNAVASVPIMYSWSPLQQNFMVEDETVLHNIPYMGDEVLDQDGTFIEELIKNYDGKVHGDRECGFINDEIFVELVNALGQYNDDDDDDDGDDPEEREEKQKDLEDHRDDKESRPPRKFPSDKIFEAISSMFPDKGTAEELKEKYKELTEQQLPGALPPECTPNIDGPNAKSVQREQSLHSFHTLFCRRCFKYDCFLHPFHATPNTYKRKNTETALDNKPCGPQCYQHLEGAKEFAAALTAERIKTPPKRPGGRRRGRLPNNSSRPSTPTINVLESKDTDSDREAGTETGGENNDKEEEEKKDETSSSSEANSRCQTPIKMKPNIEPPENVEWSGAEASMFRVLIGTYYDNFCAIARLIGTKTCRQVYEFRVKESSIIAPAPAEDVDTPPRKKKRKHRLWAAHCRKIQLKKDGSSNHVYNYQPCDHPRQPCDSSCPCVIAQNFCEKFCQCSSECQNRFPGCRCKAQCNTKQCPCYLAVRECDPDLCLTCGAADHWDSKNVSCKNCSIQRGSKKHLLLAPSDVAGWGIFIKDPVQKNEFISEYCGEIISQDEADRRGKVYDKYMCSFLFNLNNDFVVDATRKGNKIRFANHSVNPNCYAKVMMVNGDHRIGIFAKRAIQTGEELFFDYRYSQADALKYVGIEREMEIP
Chain of purified human, His-tagged PRC2 complex (O75530 whole entry): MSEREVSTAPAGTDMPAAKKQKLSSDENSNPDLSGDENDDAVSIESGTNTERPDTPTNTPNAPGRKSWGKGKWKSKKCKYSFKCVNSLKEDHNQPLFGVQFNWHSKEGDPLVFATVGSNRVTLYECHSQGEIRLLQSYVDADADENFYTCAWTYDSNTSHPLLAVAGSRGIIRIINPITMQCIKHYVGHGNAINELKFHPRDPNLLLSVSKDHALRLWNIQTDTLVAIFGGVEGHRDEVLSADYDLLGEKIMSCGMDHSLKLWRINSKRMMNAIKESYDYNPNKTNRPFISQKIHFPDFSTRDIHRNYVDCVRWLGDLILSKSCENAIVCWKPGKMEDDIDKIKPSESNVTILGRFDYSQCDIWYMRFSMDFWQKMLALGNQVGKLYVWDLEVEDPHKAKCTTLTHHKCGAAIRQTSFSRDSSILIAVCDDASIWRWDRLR
Chain of purified human, His-tagged PRC2 complex (Q15022 whole entry partner): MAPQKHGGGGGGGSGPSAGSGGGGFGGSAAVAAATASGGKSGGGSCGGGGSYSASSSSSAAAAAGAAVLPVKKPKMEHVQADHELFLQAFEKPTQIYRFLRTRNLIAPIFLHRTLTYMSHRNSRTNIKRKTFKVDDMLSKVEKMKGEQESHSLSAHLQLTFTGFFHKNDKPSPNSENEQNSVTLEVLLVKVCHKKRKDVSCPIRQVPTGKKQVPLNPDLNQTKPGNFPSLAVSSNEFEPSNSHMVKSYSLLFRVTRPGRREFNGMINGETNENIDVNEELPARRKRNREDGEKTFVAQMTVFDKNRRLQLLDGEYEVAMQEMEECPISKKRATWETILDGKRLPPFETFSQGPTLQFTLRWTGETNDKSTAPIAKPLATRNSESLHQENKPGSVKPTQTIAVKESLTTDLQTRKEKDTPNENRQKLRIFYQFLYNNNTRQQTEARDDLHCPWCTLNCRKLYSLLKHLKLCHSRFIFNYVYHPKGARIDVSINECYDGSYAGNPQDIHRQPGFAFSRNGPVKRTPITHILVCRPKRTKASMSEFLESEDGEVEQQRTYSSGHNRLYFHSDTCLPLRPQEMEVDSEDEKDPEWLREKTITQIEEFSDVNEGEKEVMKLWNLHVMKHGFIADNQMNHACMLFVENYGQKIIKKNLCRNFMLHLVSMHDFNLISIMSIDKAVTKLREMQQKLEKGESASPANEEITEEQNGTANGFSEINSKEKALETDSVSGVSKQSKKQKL
Chain of purified human, His-tagged PRC2 complex (Q6ZN18 whole entry partner): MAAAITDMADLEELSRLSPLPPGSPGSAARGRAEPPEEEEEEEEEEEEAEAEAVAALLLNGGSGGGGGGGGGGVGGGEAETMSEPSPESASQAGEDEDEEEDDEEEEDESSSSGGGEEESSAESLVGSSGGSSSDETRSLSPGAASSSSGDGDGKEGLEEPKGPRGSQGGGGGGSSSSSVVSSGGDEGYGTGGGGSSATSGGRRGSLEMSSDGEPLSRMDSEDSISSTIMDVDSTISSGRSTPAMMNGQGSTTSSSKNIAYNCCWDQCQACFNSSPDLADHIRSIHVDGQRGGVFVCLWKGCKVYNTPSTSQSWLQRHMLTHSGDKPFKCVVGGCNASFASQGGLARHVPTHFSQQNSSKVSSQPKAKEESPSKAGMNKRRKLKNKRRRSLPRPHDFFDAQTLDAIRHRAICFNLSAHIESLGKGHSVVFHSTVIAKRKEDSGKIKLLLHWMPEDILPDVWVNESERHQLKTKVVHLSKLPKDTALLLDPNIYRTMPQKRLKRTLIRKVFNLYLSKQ
Chain of purified human, His-tagged PRC2 complex (Q09028 whole entry partner): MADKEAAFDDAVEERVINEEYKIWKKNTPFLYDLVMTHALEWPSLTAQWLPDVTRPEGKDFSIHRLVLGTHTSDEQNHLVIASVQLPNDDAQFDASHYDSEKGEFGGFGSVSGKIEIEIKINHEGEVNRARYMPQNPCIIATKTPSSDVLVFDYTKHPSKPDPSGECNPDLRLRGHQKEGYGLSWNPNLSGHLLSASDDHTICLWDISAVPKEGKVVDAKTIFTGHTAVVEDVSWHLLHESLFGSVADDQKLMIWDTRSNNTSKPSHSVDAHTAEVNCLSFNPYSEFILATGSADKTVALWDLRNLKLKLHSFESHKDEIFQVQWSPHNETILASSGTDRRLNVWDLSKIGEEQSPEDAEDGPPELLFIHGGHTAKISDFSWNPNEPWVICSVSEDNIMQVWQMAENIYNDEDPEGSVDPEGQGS

For the compound `[2H]C([2H])(c1ccc(-c2cnc(NCc3c(F)ccc4c3CCO4)n3cc(C#N)nc23)c(C)c1)N(C)C` [Example 173, 8-(4-((dimethylamino)methyl-d2)-2-methylphenyl)-5-(((5-fluoro-2,3-dihydrobenzofuran-4-yl)methyl)amino)imidazo[1,2-c]pyrimidine-2-carbonitrile], the results for the pIC50 (in assay [1]; in the assay on Karpas 422 cells; in assay [2]) were ≥ 7.00, ≥ 6.60 and > 7.00, respectively.

As for `N#Cc1cn2c(NCc3c(F)ccc4c3CCO4)ncc(-c3cccc(C(=O)O)c3)c2n1` [Example 174, 3-(2-cyano-5-(((5-fluoro-2,3-dihydrobenzofuran-4-yl)methyl)amino)imidazo[1,2-c]pyrimidin-8-yl)benzoic acid], the pIC50 was < 6.30 in assay [1], < 6.30 in the assay on Karpas 422 cells and > 7.00 in assay [2].

Regarding `Cc1ccc(-c2cnc(NCc3c(F)ccc4c3CCO4)n3cc(C#N)nc23)cc1` [Example 175, 5-(((5-fluoro-2,3-dihydrobenzofuran-4-yl)methyl)amino)-8-(p-tolyl)imidazo[1,2-c]pyrimidine-2-carbonitrile], the pIC50 is < 6.30 in assay [1], 6.30 to 6.60 in the assay on Karpas 422 cells and 6.30 to 7.00 in assay [2].

For the compound `Cc1c(C#N)cccc1-c1cnc(NCc2c(F)ccc3c2CCO3)n2cc(C#N)nc12` [Example 176, 8-(3-cyano-2-methylphenyl)-5-(((5-fluoro-2,3-dihydrobenzofuran-4-yl)methyl)amino)imidazo[1,2-c]pyrimidine-2-carbonitrile], the pIC50 in assay [1] is 6.30 to 7.00; in the assay on Karpas 422 cells, 6.30 to 6.60; in assay [2], > 7.00.

For the compound `CC(O)Cn1cc(-c2cnc(NCc3c(F)ccc4c3CCO4)n3cc(C#N)nc23)cn1` (stereo not drawn) [Example 179, 5-(((5-fluoro-2,3-dihydrobenzofuran-4-yl)methyl)amino)-8-(1-(2-hydroxypropyl)-1H-pyrazol-4-yl)imidazo[1,2-c]pyrimidine-2-carbonitrile], the values for the pIC50 (in assay [1]; in the assay on Karpas 422 cells; in assay [2]) were 6.30 to 7.00, < 6.30 and > 7.00, respectively.

For `CN(C)C(=O)c1ccc(-c2cnc(NCc3c(F)ccc4c3CCO4)n3cc(C#N)nc23)cc1` [Example 180, 4-(2-cyano-5-(((5-fluoro-2,3-dihydrobenzofuran-4-yl)methyl)amino)imidazo[1,2-c]pyrimidin-8-yl)-N,N-dimethylbenzamide], the pIC50 was ≥ 7.00 in assay [1], ≥ 6.60 with Karpas 422 cells and > 7.00 in assay [2].

Consider `N#Cc1cn2c(NCc3c(F)ccc4c3CCO4)ncc(-c3ccc(C(=O)N4CCOCC4)cc3)c2n1` [Example 181, 5-(((5-fluoro-2,3-dihydrobenzofuran-4-yl)methyl)amino)-8-(4-(morpholine-4-carbonyl)phenyl)imidazo[1,2-c]pyrimidine-2-carbonitrile], for which the pIC50 was 6.30 to 7.00 in assay [1], ≥ 6.60 with Karpas 422 cells and > 7.00 in assay [2].

As for `N#Cc1cn2c(NCc3c(F)ccc4c3CCO4)ncc(-c3cnn(CCO)c3)c2n1` [Example 182, 5-(((5-fluoro-2,3-dihydrobenzofuran-4-yl)methyl)amino)-8-(1-(2-hydroxyethyl)-1H-pyrazol-4-yl)imidazo[1,2-c]pyrimidine-2-carbonitrile], the pIC50 in assay [1] was 6.30 to 7.00; with Karpas 422 cells, ≥ 6.60; in assay [2], 6.30 to 7.00.

Turning to `N#Cc1cn2c(NCc3c(F)ccc4c3CCO4)ncc(-c3ccc(C(=O)O)cc3)c2n1` [Example 183, 4-(2-cyano-5-(((5-fluoro-2,3-dihydrobenzofuran-4-yl)methyl)amino)imidazo[1,2-c]pyrimidin-8-yl)benzoic acid], the pIC50 in assay [1] was < 6.30; in the assay on Karpas 422 cells, < 6.30; in assay [2] it was > 7.00.

Take `Cc1cc(S(=O)(=O)C(F)(F)F)ccc1-c1cnc(NCc2c(F)ccc3c2CCO3)n2cc(C#N)nc12` [Example 184, 5-(((5-fluoro-2,3-dihydrobenzofuran-4-yl)methyl)amino)-8-(2-methyl-4-((trifluoromethyl)sulfonyl)phenyl)imidazo[1,2-c]pyrimidine-2-carbonitrile]: the results for the negative-log IC50 (pIC50) (in assay [1]; in the assay on Karpas 422 cells; in assay [2]) were 6.30 to 7.00, 6.30 to 6.60 and 6.30 to 7.00, respectively.

In the case of `CNCc1ccc(-c2cnc(NCc3c(F)ccc4c3CCO4)n3cc(C#N)nc23)cc1` [Example 185, 5-(((5-fluoro-2,3-dihydrobenzofuran-4-yl)methyl)amino)-8-(4-((methylamino)methyl)phenyl)imidazo[1,2-c]pyrimidine-2-carbonitrile], the pIC50 in assay [1] is ≥ 7.00; in the assay on Karpas 422 cells it was ≥ 6.60; in assay [2], > 7.00.

For the compound `CNC(=O)c1ccc(-c2cnc(NCc3c(F)ccc4c3CCO4)n3cc(C#N)nc23)cc1` [Example 186, 4-(2-cyano-5-(((5-fluoro-2,3-dihydrobenzofuran-4-yl)methyl)amino)imidazo[1,2-c]pyrimidin-8-yl)-N-methylbenzamide], the pIC50 in assay [1] was 6.30 to 7.00; with Karpas 422 cells it was ≥ 6.60; in assay [2] it was > 7.00.

As to `N#Cc1cn2c(NCc3c(F)ccc4c3CCO4)ncc(-c3ccccc3C#N)c2n1` [Example 187, 8-(2-cyanophenyl)-5-(((5-fluoro-2,3-dihydrobenzofuran-4-yl)methyl)amino)imidazo[1,2-c]pyrimidine-2-carbonitrile], the values for the pIC50 (in assay [1]; in the assay on Karpas 422 cells; in assay [2]) were 6.30 to 7.00, 6.30 to 6.60 and > 7.00, respectively.

Take `N#Cc1cc(-c2cnc(NCc3c(F)ccc4c3CCO4)n3cc(C#N)nc23)ccn1` [Example 188, 8-(2-cyanopyridin-4-yl)-5-(((5-fluoro-2,3-dihydrobenzofuran-4-yl)methyl)amino)imidazo[1,2-c]pyrimidine-2-carbonitrile]: the pIC50 is 6.30 to 7.00 in assay [1], 6.30 to 6.60 in the assay on Karpas 422 cells and 6.30 to 7.00 in assay [2].

In the case of `CN(C)CCOc1ccc(-c2cnc(NCc3c(F)ccc4c3CCO4)n3cc(C#N)nc23)cc1` [Example 189, 8-(4-(2-(dimethylamino)ethoxy)phenyl)-5-(((5-fluoro-2,3-dihydrobenzofuran-4-yl)methyl)amino)imidazo[1,2-c]pyrimidine-2-carbonitrile], the negative logarithm of the IC50 (pIC50) was 6.30 to 7.00 in assay [1], ≥ 6.60 in the assay with Karpas 422 cells and 6.30 to 7.00 in assay [2].

On to `N#Cc1cn2c(NCc3c(F)ccc4c3CCO4)ncc(-c3ccc(-c4nnn[nH]4)cc3)c2n1` [Example 190, 8-(4-(1H-tetrazol-5-yl)phenyl)-5-(((5-fluoro-2,3-dihydrobenzofuran-4-yl)methyl)amino)imidazo[1,2-c]pyrimidine-2-carbonitrile], for which the pIC50 is < 6.30 in assay [1], < 6.30 in the assay with Karpas 422 cells and > 7.00 in assay [2].

Take `COCCOc1ncc(-c2cnc(NCc3c(F)ccc4c3CCO4)n3cc(C#N)nc23)cn1` [Example 191, 5-(((5-fluoro-2,3-dihydrobenzofuran-4-yl)methyl)amino)-8-(2-(2-methoxyethoxy)pyrimidin-5-yl)imidazo[1,2-c]pyrimidine-2-carbonitrile]: the pIC50 in assay [1] is 6.30 to 7.00; in the assay with Karpas 422 cells, 6.30 to 6.60; in assay [2] it was 6.30 to 7.00.

With `Cc1ccc(-c2cnc(NCc3c(F)ccc4c3CCO4)n3cc(C#N)nc23)c(C)c1` [Example 192, 8-(2,4-dimethylphenyl)-5-(((5-fluoro-2,3-dihydrobenzofuran-4-yl)methyl)amino)imidazo[1,2-c]pyrimidine-2-carbonitrile], the pIC50 (in assay [1]; in the assay with Karpas 422 cells; in assay [2]) was < 6.30 each time.

As to `N#Cc1cn2c(NCc3c(F)ccc4c3CCO4)ncc(-c3ccnn3C3CC3)c2n1` [Example 193, 8-(1-cyclopropyl-1H-pyrazol-5-yl)-5-(((5-fluoro-2,3-dihydrobenzofuran-4-yl)methyl)amino)imidazo[1,2-c]pyrimidine-2-carbonitrile], the pIC50 was 6.30 to 7.00 in assay [1], ≥ 6.60 with Karpas 422 cells and > 7.00 in assay [2].

Take `Cn1nccc(-c2cnc(NCc3c(F)ccc4c3CCO4)n3cc(C#N)nc23)c1=O` [Example 194, 5-(((5-fluoro-2,3-dihydrobenzofuran-4-yl)methyl)amino)-8-(2-methyl-3-oxo-2,3-dihydropyridazin-4-yl)imidazo[1,2-c]pyrimidine-2-carbonitrile]: the pIC50 in assay [1] was 6.30 to 7.00; in the assay with Karpas 422 cells it was ≥ 6.60; in assay [2], 6.30 to 7.00.

With `Cc1cc(CN(C)C)ncc1-c1cnc(NCc2c(F)ccc3c2CCO3)n2cc(C#N)nc12` [Example 195, 8-(6-((dimethylamino)methyl)-4-methylpyridin-3-yl)-5-(((5-fluoro-2,3-dihydrobenzofuran-4-yl)methyl)amino)imidazo[1,2-c]pyrimidine-2-carbonitrile], the pIC50 in assay [1] is ≥ 7.00; with Karpas 422 cells, ≥ 6.60; in assay [2], > 7.00.

For the compound `CNCc1ccc(-c2cnc(NCc3c(F)ccc4c3CCO4)n3cc(C#N)nc23)c(C)c1` [Example 196, 5-(((5-fluoro-2,3-dihydrobenzofuran-4-yl)methyl)amino)-8-(2-methyl-4-((methylamino)methyl)phenyl)imidazo[1,2-c]pyrimidine-2-carbonitrile], the pIC50 in assay [1] is 6.30 to 7.00; in the assay on Karpas 422 cells, ≥ 6.60; in assay [2], 6.30 to 7.00.

The values are drawn from patent EP4043466B1, “PRC2 INHIBITORS” (Mirati Therapeutics, Inc., priority 2018, dated 2019).
